This is an account of results in the SangsterLogP compilation.

For the compound `CCc1ccc(C)cc1C`, the logP came out at 4.47.
`CC(C)Cc1ccccc1`: the logP is 4.68.
As for `Cc1cccc(C(C)C)c1`, the figure is 4.5; as for `Cc1cccc(C)c1C`, 3.78.
Consider `CCc1c(C)cccc1C`, for which the logP was found to be 4.28.
Regarding `CCc1cccc(C)c1`, the logP worked out at 3.98.
On to `Cc1ccccc1C(C)C`, for which the logP was found to be 4.38.
As for `Cc1ccc(C)cc1`, the figure is 3.42.
With `CCCc1cccc(C)c1`, the logP was determined as 4.67.
As for `CCCc1ccc(C)cc1`, the figure is 4.6.
In turn, `CCCCCCCCCc1ccccc1` registered a logP of 7.11.
The compound `CCc1ccc(C)c(C)c1` registered a logP of 4.5.
In turn, `Cc1ccc(C)c(C)c1` displayed a logP of 3.91.
As for `CCC(C)c1ccccc1` (stereo not given), the figure is 4.57.
In turn, `CCc1ccccc1C` gave a logP of 3.86.
In the case of `CCc1ccc(C)cc1`, the logP amounted to 4.
With `CCCc1ccccc1C` the figure was 4.5; with `CCc1cc(C)ccc1C`, 4.43.
`CCc1cc(C)cc(C)c1` displayed a logP of 4.55.
In the case of `CCc1cccc(C)c1C`, the logP stood at 4.34.

Broadly, the logP is a log measure of how a compound divides between an organic and an aqueous phase. Low readings indicate lower lipophilicity, high ones higher lipophilicity.
